Laboratory results: publication PMC4996523, “Biophysical and Pharmacological Characterization of Nav1.9 Voltage Dependent Sodium Channels Stably Expressed in HEK-293 Cells” (PLoS ONE, 2016)
Values joined by “and” are separate entries in the source; they are usually repeats but may differ in a detail not shown here. Identical values can stand only once. “Also recorded” adds a separate entry of the source. Like-named read-outs stand apart in the source and are kept apart here.

Experiments:
Type in all cases: cell-based
Human Nav1.9 = target: T1, Human Nav1.9 (Homo sapiens, UniProt Q9UI33); test: PatchXpress whole-cell voltage clamp, inhibition of human Nav1.9 (+β1/β2) currents in HEK-293 cells; set-up: key to Activity on human Nav1.9 at single concentration: NA = not active; details: for Increase in potency at the most depolarized membrane potential: -90 mV vs -140 mV (resting to half-inactivated channels)
T1 construct: expressed in transfected cells; host or cells: HEK-293 stably expressing human β1/β2

[1] = target: T2, Human Nav1.9 F1592A/Y1599A (Homo sapiens, UniProt Q9UI33, F1592A/Y1599A); test: PatchXpress whole-cell voltage clamp, inhibition of the human Nav1.9 F1592A/Y1599A local anesthetic site mutant in HEK-293 cells; details: for IC50: read-out: IC50 for inhibition of human Nav1.9 F1592A/Y1599A (LAM)
T2 construct: expressed in transfected cells; host or cells: HEK-293-β1/β2

Human Nav1.7 = target: T3, Human Nav1.7 (Homo sapiens, UniProt Q15858); test: PatchXpress whole-cell voltage clamp, inhibition of human Nav1.7 in HEK-293 cells
T3 construct: expressed in transfected cells; host or cells: HEK-293-β1/β2

Nav1.9 K799N = target: T4, Nav1.9 K799N (Homo sapiens, UniProt Q9UI33, K799N); test: PatchXpress whole-cell voltage clamp, inhibition of the human Nav1.9 K799N mutant in HEK-293 cells; details: for IC50: protocol of Fig 2
T4 construct: expressed in transfected cells; host or cells: HEK-293-β1/β2

Nav1.7 N945K = target: T5, Nav1.7 N945K (Homo sapiens, UniProt Q15858, N956K); test: PatchXpress whole-cell voltage clamp, inhibition of the human Nav1.7 N945K mutant in HEK-293 cells
T5 construct: expressed in transfected cells; host or cells: HEK-293-β1/β2

Human Nav1.8 = Human Nav1.8 (Homo sapiens, UniProt Q9Y5Y9); test: Whole-cell voltage clamp, inhibition of human Nav1.8; details: ~50% inactivated
Rat Nav1.9 = target: T6, Rat Nav1.9 (Rattus norvegicus, UniProt O88457); test: PatchXpress whole-cell voltage clamp, inhibition of rat Nav1.9 (+rat β1/β2) in HEK-293 cells
T6 construct: expressed in transfected cells; host or cells: HEK-293-rat β1/β2

Mouse Nav1.9 = target: T7, Mouse Nav1.9 (Mus musculus, UniProt Q9R053); test: PatchXpress whole-cell voltage clamp, inhibition of mouse Nav1.9 (+mouse β1/β2) in HEK-293 cells
T7 construct: expressed in transfected cells; host or cells: HEK-293-mouse β1/β2

[2] = holding potential -120 mV (~25% inactivation), 40 ms step to -40 mV every 20 s, HEK-293 + β1/β2, 500 μM GTP-γ-S in pipette, read-out: IC50 for inhibition of human Nav1.9
[3] = Nav1.9 F1592A/Y1599A vs Nav1.9 WT

T4 sequence (Q9UI33 whole entry K799N): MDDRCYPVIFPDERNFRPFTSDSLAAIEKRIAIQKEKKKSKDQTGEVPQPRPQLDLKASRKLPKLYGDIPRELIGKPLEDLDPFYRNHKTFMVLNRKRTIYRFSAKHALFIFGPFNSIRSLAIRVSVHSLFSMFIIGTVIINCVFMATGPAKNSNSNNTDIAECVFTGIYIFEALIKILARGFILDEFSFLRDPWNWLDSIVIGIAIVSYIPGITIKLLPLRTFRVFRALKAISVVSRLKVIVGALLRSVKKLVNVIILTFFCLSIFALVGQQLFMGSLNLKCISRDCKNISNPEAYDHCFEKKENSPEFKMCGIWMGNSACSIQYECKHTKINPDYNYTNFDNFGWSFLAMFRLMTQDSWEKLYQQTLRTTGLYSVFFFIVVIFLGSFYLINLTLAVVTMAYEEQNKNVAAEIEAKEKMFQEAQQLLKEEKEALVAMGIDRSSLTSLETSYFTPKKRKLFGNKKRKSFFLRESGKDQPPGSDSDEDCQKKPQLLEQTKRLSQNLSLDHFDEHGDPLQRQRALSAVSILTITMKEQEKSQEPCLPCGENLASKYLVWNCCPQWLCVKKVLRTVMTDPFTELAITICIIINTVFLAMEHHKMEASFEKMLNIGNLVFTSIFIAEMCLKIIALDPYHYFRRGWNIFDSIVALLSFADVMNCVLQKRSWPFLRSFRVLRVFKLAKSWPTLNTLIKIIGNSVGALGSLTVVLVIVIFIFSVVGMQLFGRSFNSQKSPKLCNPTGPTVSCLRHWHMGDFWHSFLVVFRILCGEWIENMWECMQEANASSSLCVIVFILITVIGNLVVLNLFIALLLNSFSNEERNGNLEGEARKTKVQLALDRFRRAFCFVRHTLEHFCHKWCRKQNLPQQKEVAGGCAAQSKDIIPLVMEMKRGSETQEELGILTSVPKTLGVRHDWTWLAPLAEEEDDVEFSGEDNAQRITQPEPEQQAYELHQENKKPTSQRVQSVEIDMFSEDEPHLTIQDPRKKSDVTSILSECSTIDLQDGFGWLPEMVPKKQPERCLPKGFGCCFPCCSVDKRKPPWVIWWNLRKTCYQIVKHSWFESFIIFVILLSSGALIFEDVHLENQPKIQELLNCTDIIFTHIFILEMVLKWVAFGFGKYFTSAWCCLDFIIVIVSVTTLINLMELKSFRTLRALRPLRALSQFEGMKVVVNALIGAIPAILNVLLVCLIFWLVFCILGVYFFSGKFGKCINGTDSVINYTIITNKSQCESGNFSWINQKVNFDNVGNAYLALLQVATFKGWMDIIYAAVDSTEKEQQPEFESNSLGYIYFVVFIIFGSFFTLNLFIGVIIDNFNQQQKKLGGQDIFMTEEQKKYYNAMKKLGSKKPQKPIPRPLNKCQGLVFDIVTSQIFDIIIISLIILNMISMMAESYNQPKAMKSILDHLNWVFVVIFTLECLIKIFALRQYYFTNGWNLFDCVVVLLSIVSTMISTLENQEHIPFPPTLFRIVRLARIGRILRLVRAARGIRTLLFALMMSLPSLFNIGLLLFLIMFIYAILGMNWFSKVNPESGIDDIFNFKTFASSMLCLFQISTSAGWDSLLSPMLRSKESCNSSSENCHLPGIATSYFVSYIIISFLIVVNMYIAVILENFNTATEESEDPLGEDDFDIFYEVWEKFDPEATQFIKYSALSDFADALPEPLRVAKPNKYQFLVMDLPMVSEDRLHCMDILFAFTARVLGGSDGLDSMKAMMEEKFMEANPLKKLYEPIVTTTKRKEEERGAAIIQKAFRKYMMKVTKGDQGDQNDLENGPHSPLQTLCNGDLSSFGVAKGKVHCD
T4 sequence (Q07699 19-218 partner): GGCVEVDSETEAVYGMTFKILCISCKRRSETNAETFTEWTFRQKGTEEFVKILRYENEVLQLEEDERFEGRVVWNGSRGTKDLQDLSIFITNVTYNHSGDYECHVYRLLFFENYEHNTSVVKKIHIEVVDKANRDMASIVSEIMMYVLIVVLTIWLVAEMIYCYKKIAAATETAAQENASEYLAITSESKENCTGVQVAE
T2 sequence (Q9UI33 whole entry F1592A/Y1599A): as the sequence (Q9UI33 whole entry K799N) above, with N799K, F1592A, Y1599A counted along it
T2 sequence (Q07699 19-218 partner): as the sequence (Q07699 19-218 partner) above
T1 sequence (Q9UI33 whole entry): as the sequence (Q9UI33 whole entry K799N) above, with N799K counted along it
T1 sequence (Q07699 19-218 partner): as the sequence (Q07699 19-218 partner) above
T5 sequence (Q15858 1-1977 isoform Q15858-3 N945K): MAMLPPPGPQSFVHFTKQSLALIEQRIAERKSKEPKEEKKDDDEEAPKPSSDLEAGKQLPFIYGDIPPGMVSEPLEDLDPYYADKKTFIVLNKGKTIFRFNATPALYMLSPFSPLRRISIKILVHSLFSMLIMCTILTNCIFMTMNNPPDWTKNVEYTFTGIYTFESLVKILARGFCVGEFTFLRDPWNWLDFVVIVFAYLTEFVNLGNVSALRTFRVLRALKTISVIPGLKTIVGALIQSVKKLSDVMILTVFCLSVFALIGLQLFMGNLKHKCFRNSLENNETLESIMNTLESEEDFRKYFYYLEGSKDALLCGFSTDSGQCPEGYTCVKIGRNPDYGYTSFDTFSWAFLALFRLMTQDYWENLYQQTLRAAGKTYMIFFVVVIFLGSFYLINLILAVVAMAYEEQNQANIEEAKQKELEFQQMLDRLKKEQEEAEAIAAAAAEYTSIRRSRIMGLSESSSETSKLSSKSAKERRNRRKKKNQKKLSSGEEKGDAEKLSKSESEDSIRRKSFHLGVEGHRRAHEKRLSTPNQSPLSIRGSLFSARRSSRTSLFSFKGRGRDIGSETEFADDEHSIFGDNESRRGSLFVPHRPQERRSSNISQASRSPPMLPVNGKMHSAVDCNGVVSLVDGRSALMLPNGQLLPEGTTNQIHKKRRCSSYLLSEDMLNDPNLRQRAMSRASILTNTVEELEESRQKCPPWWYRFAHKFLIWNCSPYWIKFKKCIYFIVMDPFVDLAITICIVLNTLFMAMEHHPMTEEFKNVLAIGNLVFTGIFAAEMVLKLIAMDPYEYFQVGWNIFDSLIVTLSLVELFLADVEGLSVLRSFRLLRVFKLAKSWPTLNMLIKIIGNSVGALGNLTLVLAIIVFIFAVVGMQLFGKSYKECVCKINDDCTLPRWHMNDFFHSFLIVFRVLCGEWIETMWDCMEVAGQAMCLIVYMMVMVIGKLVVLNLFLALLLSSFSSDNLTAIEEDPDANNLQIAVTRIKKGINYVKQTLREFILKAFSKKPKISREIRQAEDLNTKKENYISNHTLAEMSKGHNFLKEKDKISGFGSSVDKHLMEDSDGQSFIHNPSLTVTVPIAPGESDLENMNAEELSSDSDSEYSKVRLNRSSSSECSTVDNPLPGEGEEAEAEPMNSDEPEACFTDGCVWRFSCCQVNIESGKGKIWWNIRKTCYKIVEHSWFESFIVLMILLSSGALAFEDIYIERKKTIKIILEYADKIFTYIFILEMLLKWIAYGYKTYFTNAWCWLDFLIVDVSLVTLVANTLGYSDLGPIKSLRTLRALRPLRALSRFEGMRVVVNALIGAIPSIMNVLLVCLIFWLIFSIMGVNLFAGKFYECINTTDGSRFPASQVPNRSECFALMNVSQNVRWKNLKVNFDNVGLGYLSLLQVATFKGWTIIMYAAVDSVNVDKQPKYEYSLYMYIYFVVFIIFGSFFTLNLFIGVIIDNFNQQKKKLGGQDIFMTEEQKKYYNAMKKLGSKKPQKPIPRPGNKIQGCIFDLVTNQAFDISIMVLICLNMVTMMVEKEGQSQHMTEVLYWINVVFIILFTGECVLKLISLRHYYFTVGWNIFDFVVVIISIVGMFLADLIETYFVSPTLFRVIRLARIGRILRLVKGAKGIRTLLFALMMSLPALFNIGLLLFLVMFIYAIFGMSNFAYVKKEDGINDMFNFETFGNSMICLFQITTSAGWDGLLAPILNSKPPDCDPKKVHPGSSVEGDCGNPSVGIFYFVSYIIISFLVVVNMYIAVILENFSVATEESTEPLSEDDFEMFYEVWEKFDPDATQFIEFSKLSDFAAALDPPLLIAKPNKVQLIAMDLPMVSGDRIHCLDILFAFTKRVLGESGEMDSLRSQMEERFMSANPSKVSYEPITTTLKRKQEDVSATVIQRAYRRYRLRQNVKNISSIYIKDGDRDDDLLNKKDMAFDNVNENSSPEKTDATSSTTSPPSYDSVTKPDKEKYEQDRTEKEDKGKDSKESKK
T5 sequence (Q07699 19-218 partner): as the sequence (Q07699 19-218 partner) above
T5 sequence (O60939 30-215 partner): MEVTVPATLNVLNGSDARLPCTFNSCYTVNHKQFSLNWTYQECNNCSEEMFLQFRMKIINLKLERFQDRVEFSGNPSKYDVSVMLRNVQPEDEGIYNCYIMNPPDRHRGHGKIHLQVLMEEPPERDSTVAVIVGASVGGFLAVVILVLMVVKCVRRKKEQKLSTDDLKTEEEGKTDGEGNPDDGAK
T3 sequence (Q15858 1-1977 isoform Q15858-3): as the sequence (Q15858 1-1977 isoform Q15858-3 N945K) above, with K945N counted along it
T3 sequence (Q07699 19-218 partner): as the sequence (Q07699 19-218 partner) above
T3 sequence (O60939 30-215 partner): as the sequence (O60939 30-215 partner) above

With `COc1cc(NC(=O)c2ccc(-c3ccc(Cl)cc3)o2)cc(OC)c1` [A-803467] the “Inhibition of human Nav1.9 at single concentration” value (Human Nav1.9; 10 μM) was 30% @ 10 μM.

Compound `CN(C)CCC=C1c2ccccc2CCc2ccccc21` [Amitriptyline] has an IC50 ([1]; same protocol as Nav1.9 WT) of 105 µM and an IC50 (Human Nav1.9; [2]) of 29 µM.

With `CCOC(=O)c1ccc(N)cc1` [Benzocaine] the IC50 (Human Nav1.7; in figure, read-out: IC50 for inhibition of Nav1.7 WT) was 130 µM, the IC50 (Human Nav1.7; wild type, ~50% inactivated, read-out: IC50 for inhibition of human Nav1.7) was 133 µM and the “Effect of the F1592A/Y1599A mutation on Nav1.9 inhibition” value (“Effect … on Nav1.9 inhibition” below) [1, 3] was “reduced”. The “Reduction in potency by the F1592A/Y1599A mutation” value [1, 3] was 5 fold, the IC50 ([1]; in figure) was 1800 µM and the IC50 ([1]; same protocol as Nav1.9 WT) was 1760 µM. For the same compound, the “Effect of the K799N mutation on potency” value (Nav1.9 K799N; Nav1.9 K799N vs Nav1.9 WT) was “unaffected”, the IC50 (Nav1.9 K799N; in figure) was 300 µM and the IC50 (Human Nav1.9; [2]) was 351 µM. The IC50 (Human Nav1.9; in figure, holding potential -120 mV, read-out: IC50 for inhibition of human Nav1.9 WT) was 400 µM, the “Effect of the N945K mutation on sensitivity” value (Nav1.7 N945K; Nav1.7 N945K vs Nav1.7 WT) was “no shift; also recorded: unchanged” and the IC50 (Nav1.7 N945K; in figure) was 180 µM.

With `CCCCN1CCCCC1C(=O)Nc1c(C)cccc1C` (centres unmarked) [Bupivacaine] the IC50 (Human Nav1.9; [2]) was 186 µM.

For `[Cl][Cd][Cl]` [CdCl2], the “Activity on human Nav1.9 at single concentration” value (“Activity” below) (Human Nav1.9; 100 μM) was “NA @ 100 μM”.

Work on `O=C(NCC1CCCCN1)c1cc(OCC(F)(F)F)ccc1OCC(F)(F)F` (centres unmarked) [Flecainide] yielded an IC50 (Human Nav1.9; [2]) of 244 µM.

With `O=C(Nc1ccc(S(=O)(=O)Nc2nccs2)cc1)C(c1ccccc1)c1ccccc1` [ICA-121431] the “Activity” value (Human Nav1.9; 10 μM) was “NA @ 10 μM”.

In the case of `Nc1nnc(-c2cccc(Cl)c2Cl)c(N)n1` [Lamotrigine], the IC50 (Human Nav1.9; [2]) is reported as 199 µM.

For `CCN(CC)CC(=O)Nc1c(C)cccc1C` [Lidocaine], the “Effect … on Nav1.9 inhibition” value [1] was “reduced”, the IC50 ([1]; same protocol as Nav1.9 WT) was 5550 µM and the IC50 (Human Nav1.9; [2]) was 356 µM.

`Cc1cccc(C)c1OCC(C)N` (centres unmarked) [Mexiletine] was tested, and the “Effect … on Nav1.9 inhibition” value [1, 3] was “reduced”, the IC50 ([1]; same protocol as Nav1.9 WT) was 837 µM and the IC50 (Human Nav1.8) was 18 µM. It also gave an IC50 (Human Nav1.9; [2]) of 270 µM.

With `COCC(=O)O[C@]1(CCN(C)CCCc2nc3ccccc3[nH]2)CCc2cc(F)ccc2[C@@H]1C(C)C` [Mibefradil] the “Activity” value (Human Nav1.9; 10 μM) was “NA @ 10 μM”.

Work on `COCCOC(=O)C1=C(C)NC(C)=C(C(=O)OC(C)C)C1c1cccc([N+](=O)[O-])c1` (centres unmarked) [Nimodipine] yielded an IC50 (Human Nav1.9; [2]) of 33 µM.

With `CC(=O)Nc1cccc(Nc2ncnc(N3CCC(OCc4ccc(OC(F)(F)F)cc4)CC3)n2)c1C` [TC-N 1752] the “Effect … on Nav1.9 inhibition” value [1, 3] was “essentially abolished” and the “Decrease in potency by the K799N mutation” value (Nav1.9 K799N; Nav1.9 K799N vs Nav1.9 WT) was 5.6 fold and ~ 6 fold.

`NC1=N[C@H](O)[C@H]2[C@H]3O[C@]4(O)O[C@@H]([C@@H](O)[C@@]2(N1)[C@@H]4O)[C@]3(O)CO` [TTX, tetrodotoxin] was tested, and the “Activity” value (Human Nav1.9) was “NA @ 10 μM” and the “Sensitivity of peak inward Nav1.9 current to inhibition” value (Human Nav1.9) was “insensitive”.

`CCCCNc1ccc(C(=O)OCCN(C)C)cc1` [Tetracaine] gave an IC50 ([1]; same protocol as Nav1.9 WT) of 177 µM, an IC50 (Human Nav1.8) of 0.3 µM and an IC50 (Rat Nav1.9) of 7.6 µM. For the same compound, the “Increase in potency by the K799N mutation” value (Nav1.9 K799N; Nav1.9 K799N vs Nav1.9 WT) was 3 fold, the IC50 (Nav1.9 K799N) was 10.3 µM and 10 µM and the “Increase in potency at the most depolarized membrane potential” value (Human Nav1.9) was about 3 fold. The “Increase in potency at the most depolarized membrane potential” value (Human Nav1.9; listed as tetracaine) was “no more than 3 fold”, the IC50 (Human Nav1.9; holding potential -90 mV, read-out: IC50 for inhibition of Nav1.9 at holding potential -90 mV) was 17 µM and the IC50 (Human Nav1.9; holding potential -100 mV, read-out: IC50 for inhibition of Nav1.9 at holding potential -100 mV) was 22 µM. The IC50 (Human Nav1.9; [2]) was 31.7 µM and 32 µM, the IC50 (Human Nav1.9; holding potential -120 mV, Fig 2B holding potential series, read-out: IC50 for inhibition of Nav1.9 at holding potential -120 mV) was 31 µM and the IC50 (Human Nav1.9; holding potential -140 mV, read-out: IC50 for inhibition of Nav1.9 at holding potential -140 mV) was 54 µM. The “Decrease in sensitivity by the N945K mutation” value (Nav1.7 N945K; Nav1.7 N945K vs Nav1.7 WT) was 3 fold and the IC50 (Mouse Nav1.9) was 12 µM.
